In patent US8404683B2, “Inhibitors of the interaction between MDM2 and P53” (Janssen Pharmaceutical N.V., priority 2004, dated 2013):
Where a name gives a salt, the structure may show the parent alone.

Test system: not given
Experiment: not given
Conditions: not given

Compound	melting point [°C]
c1ccc2c(Nc3ccc(NCCc4c[nH]c5ccccc45)cc3)ccnc2c1 (as salt: HCl) [Compound 1]	170
c1cncc(Nc2ccc(NCCc3c[nH]c4ccccc34)cc2)c1 (as salt: HCl) [Compound 6]	160
CCOc1cc(Nc2ccncc2)ccc1NCCc1c[nH]c2ccccc12 (as salt: hydrochloric acid salt) [Compound 2]	150
Cn1cc(CCN(c2ccncc2)c2ccc(Nc3ccncc3)cc2)c2ccccc21 (as salt: hydrochloric acid salt) [Compound 10]	> 250
c1cncc(CNc2ccc(NCCc3c[nH]c4ccccc34)cc2)c1 (as salt: hydrochloric acid salt) [Compound 121]	130
c1ccc2c(CCNc3ccc(NCc4ccncc4)cc3)c[nH]c2c1 (as salt: salt) [Compound 9]	132
O=c1cc(Nc2ccc(NCCc3c[nH]c4ccccc34)cc2)c2ccccc2[nH]1 [Compound 3]	238
COc1ccc2c(CNc3ccc(Nc4ccncc4)cc3)c[nH]c2c1 [Compound 7]	145
O=C(CCc1c[nH]c2ccccc12)Nc1ccc(Nc2ccncc2)cc1 [Compound 8]	208
c1ccc2c(CCNc3ccc(CNc4ccncc4)cc3)c[nH]c2c1 [Compound 11]	122
c1ccc2c(CCNc3ccc(Nc4ccnc(-c5nnn[nH]5)c4)cc3)c[nH]c2c1 [Compound 87]	210
c1ccc(-c2noc(-c3cc(Nc4ccc(NCCc5c[nH]c6ccccc56)cc4)ccn3)n2)cc1 [Compound 107]	170 to 174
c1ccc(Cc2noc(-c3cc(Nc4ccc(NCCc5c[nH]c6ccccc56)cc4)ccn3)n2)cc1 [Compound 108]	159 to 161
OC1CCCc2c(Nc3ccc(NCCc4c[nH]c5ccccc45)cc3)ccnc21 (stereo not shown) [Compound 111]	104
CCOc1cc(Nc2ccnc3c2CCC3O)ccc1NCCc1c[nH]c2cc(OC)ccc12 (stereo not shown) [Compound 112]	194

Test system: U87MG cells
Experiment: Proliferation assay (MTT-based) on U87MG tumour cells
Conditions: Homo sapiens, U-87 MG, 96 h, 4 days of incubation, negative log value of the IC50-value, read-out: cell proliferation pIC50 (converted)
Method: U87MG cells are human glioblastoma cells with wild type p53. In this cell line MDM2 tightly controls p53 expression.
Cellular activity of the compounds of formula (I) was determined on U87MG tumour cells using a colorimetric assay for cell toxicity or survival (see example C.2).
All compounds tested were dissolved in DMSO and further dilutions were made in culture medium. Final DMSO concentrations never exceeded 0.1% (v/v) in cell proliferation assays. Controls contained U87MG cells and DMSO without compound and blanks contained DMSO but no cells.
U87MG cells were seeded in 96-well cell culture plates at 3000 cells/well/100 μl. 24 hours later, medium was changed and compound and/or solvent were added to a final volume of 200 μl. Following 4 days of incubation, medium was replaced by 200 μl fresh medium and cell growth was assessed using a MTT-based assay. Therefore, 25 μl of the MTT solution (0.5% MTT research grade from Serva in phosphate-buffered saline) was added to each well and the cells were further incubated for 2 hours at 37° C. The medium was then carefully aspirated and the blue MTT-formazan product was dissolved by adding to each well 25 μl 0.1 M glycin and 100 μl DMSO. The plates were shaken for another 10 min on a micro plate shaker before reading absorbance at 540 nm by a Biorad micro plate reader.
Within an experiment, the results for each experimental condition are the mean of 3 replicate wells. For initial screening purposes, compounds were tested at a single fixed concentration of 10^−5 M. For active compounds, the experiments were repeated to establish full concentration-response curves. For each experiment, controls (containing no drug) and a blank incubation (containing no cells or drugs) were run in parallel. The blank value was subtracted from all control and sample values. For each sample, the mean value for cell growth (in absorbance units) was expressed as a percentage of the mean value for cell growth of the control. When appropriate, IC50-values (concentration of the drug, needed to reduce cell growth to 50% of the control) were computed using probit analysis for graded data (Finney, D. J., Probit Analyses, 2nd Ed. Chapter 10, Graded Responses, Cambridge University Press, Cambridge 1962). Herein the effects of test compounds are expressed as pIC50 (the negative log value of the IC50-value) (see table F-2).

Compound	IC50 [nM]
O=c1cc(Nc2ccc(NCCc3c[nH]c4ccccc34)cc2)c2ccccc2[nH]1 [Compound 3]	5010
COc1ccc2c(CNc3ccc(Nc4ccncc4)cc3)c[nH]c2c1 [Compound 7]	2000
O=C(CCc1c[nH]c2ccccc12)Nc1ccc(Nc2ccncc2)cc1 [Compound 8]	5010
c1ccc2c(CCNc3ccc(CNc4ccncc4)cc3)c[nH]c2c1 [Compound 11]	5010
c1ccc2c(CCNc3ccc(Nc4ccnc(-c5nnn[nH]5)c4)cc3)c[nH]c2c1 [Compound 87]	> 10000
OC1CCCc2c(Nc3ccc(NCCc4c[nH]c5ccccc45)cc3)ccnc21 (stereo not shown) [Compound 111]	79.4
CCOc1cc(Nc2ccnc3c2CCC3O)ccc1NCCc1c[nH]c2cc(OC)ccc12 (stereo not shown) [Compound 112]	31.6
CCOc1cc(Nc2ccncc2)ccc1NCCc1c[nH]c2cc(OC)ccc12 [Compound 177]	50.1
COC(=O)c1cc(Nc2ccc(NCCc3c[nH]c4cc(OC)ccc34)cc2)ccn1 [Compound 178]	1580
COc1cc(Nc2ccnc(CO)c2)ccc1NCCc1c[nH]c2ccccc12 [Compound 179]	251
COc1ccc2c(CCNc3ccc(Nc4ccnc(CO)c4)cc3)c[nH]c2c1 [Compound 180]	631
COc1ccc2c(CCNc3ccc(Nc4ccnc(CO)c4)cc3OC)c[nH]c2c1 [Compound 181]	251
Clc1ccc2[nH]cc(CCNc3ccc(Nc4ccncc4)cc3)c2c1 [Compound 182]	1580
Cc1ccc2c(CCNc3ccc(Nc4ccncc4)cc3)c[nH]c2c1 [Compound 183]	501
Fc1ccc2c(CCNc3ccc(Nc4ccncc4)cc3)c[nH]c2c1 [Compound 184]	1000
Cc1ccc2[nH]cc(CCNc3ccc(Nc4ccncc4)cc3)c2c1 [Compound 185]	2000
Clc1cccc2[nH]cc(CCNc3ccc(Nc4ccncc4)cc3)c12 [Compound 186]	1000
Cc1cccc2c(CCNc3ccc(Nc4ccncc4)cc3)c[nH]c12 [Compound 187]	398
COc1cccc2c(CCNc3ccc(Nc4ccncc4)cc3)c[nH]c12 [Compound 188]	794
Cc1ccc2[nH]cc(CCNc3ccc(Nc4ccnc(CO)c4)cc3)c2c1 [Compound 189]	3160

Compound	IC50 [nM]
c1cnc2[nH]cc(CCNc3ccc(Nc4ccncc4)cc3)c2c1 [Compound 190]	3980
COc1cccc2[nH]cc(CCNc3ccc(Nc4ccncc4)cc3)c12 [Compound 191]	3160
Brc1ccc2c(CCNc3ccc(Nc4ccncc4)cc3)c[nH]c2c1 [Compound 192]	> 10000
OCc1cc(Nc2ccc(NCCc3c[nH]c4cc(F)ccc34)cc2)ccn1 [Compound 193]	1000
N#CC=Cc1ccc2c(CCNc3ccc(Nc4ccncc4)cc3)c[nH]c2c1 [Compound 194]	6310
O[C@@H]1CCc2c(Nc3ccc(NCCc4c[nH]c5ccccc45)cc3)ccnc21 [Compound 195]	79.4
COc1ccc2c(CCNc3ccc(Nc4ccnc5c4CCC5O)cc3)c[nH]c2c1 (stereo not shown) [Compound 196]	200
CCOc1cc(Nc2ccnc3c2CCCC3O)ccc1NCCc1c[nH]c2cc(OC)ccc12 (stereo not shown) [Compound 197]	251
c1ccc2c(CCNc3ccc(Nc4ccnc5[nH]ccc45)cc3)c[nH]c2c1 [Compound 198]	1260
Clc1cccc(CC(CNc2ccc(Nc3ccncc3)cc2)c2c[nH]c3ccccc23)c1 (stereo not shown) [Compound 199]	2000
CC(C)(O)c1cc(Nc2ccc(NCCc3c[nH]c4ccccc34)cc2)ccn1 [Compound 201]	3160
CC(=O)OC(C)(C)c1cc(Nc2ccc(NCCc3c[nH]c4ccccc34)cc2)ccn1 [Compound 202]	3160
CCC(O)c1cc(Nc2ccc(NCCc3c[nH]c4ccccc34)cc2)ccn1 (stereo not shown) [Compound 203]	3160
O=C(c1cc(Nc2ccc(NCCc3c[nH]c4ccccc34)cc2)ccn1)C1CC1 [Compound 204]	7940
CCOc1cc(Nc2ccnc(C(C)O)c2)ccc1NCCc1c[nH]c2cc(OC)ccc12 (stereo not shown) [Compound 205]	794
CC(=O)NCc1cc(Nc2ccc(NCCc3c[nH]c4ccccc34)cc2)ccn1 [Compound 206]	3160
O=C(C(Cc1c[nH]c2ccccc12)Nc1ccc(Nc2ccncc2)cc1)N(CCCCO)Cc1ccccc1 (stereo not shown) [Compound 207]	794
O=C(C(Cc1c[nH]c2ccccc12)Nc1ccc(Nc2ccncc2)cc1)N1CCCC1CO (stereo not shown) [Compound 208]	> 10000
O=C(C(Cc1c[nH]c2ccccc12)Nc1ccc(Nc2ccncc2)cc1)N1CCC(CO)C1 (stereo not shown) [Compound 209]	> 10000
O=C(C(Cc1c[nH]c2ccccc12)Nc1ccc(Nc2ccncc2)cc1)N1CCC(CCO)C1 (stereo not shown) [Compound 210]	> 10000

Compound	IC50 [nM]
CN(C)CCN(Cc1ccccc1)C(=O)C(Cc1c[nH]c2ccccc12)Nc1ccc(Nc2ccncc2)cc1 (stereo not shown) [Compound 211]	63.1
CCN(CCCCO)C(=O)C(Cc1c[nH]c2ccccc12)Nc1ccc(Nc2ccncc2)cc1 (stereo not shown) [Compound 212]	1580
CN(CCO)C(=O)C(Cc1c[nH]c2ccccc12)Nc1ccc(Nc2ccncc2)cc1 (stereo not shown) [Compound 213]	> 10000
O=C(C(Cc1c[nH]c2ccccc12)Nc1ccc(Nc2ccncc2)cc1)N(CCO)Cc1ccccc1 (stereo not shown) [Compound 214]	> 10000
COCCN(C)C(=O)C(Cc1c[nH]c2ccccc12)Nc1ccc(Nc2ccncc2)cc1 (stereo not shown) [Compound 215]	3160
O=C(C(Cc1c[nH]c2ccccc12)Nc1ccc(Nc2ccncc2)cc1)N1CCCCC1CCCO (stereo not shown) [Compound 216]	2510
O=C(C(Cc1c[nH]c2ccccc12)Nc1ccc(Nc2ccncc2)cc1)N1CCC(CCCO)CC1 (stereo not shown) [Compound 217]	3980
O=C(C(Cc1c[nH]c2ccccc12)Nc1ccc(Nc2ccncc2)cc1)N1CCCC(CO)C1 (stereo not shown) [Compound 218]	> 10000
CC1(CO)CCCN(C(=O)C(Cc2c[nH]c3ccccc23)Nc2ccc(Nc3ccncc3)cc2)C1 (stereo not shown) [Compound 219]	3980
CC(C)(CO)C1CCN(C(=O)C(Cc2c[nH]c3ccccc23)Nc2ccc(Nc3ccncc3)cc2)CC1 (stereo not shown) [Compound 220]	6310
CC(CO)(CO)C1CCN(C(=O)C(Cc2c[nH]c3ccccc23)Nc2ccc(Nc3ccncc3)cc2)CC1 (stereo not shown) [Compound 221]	3980
COCC1(O)CCN(C(=O)C(Cc2c[nH]c3ccccc23)Nc2ccc(Nc3ccncc3)cc2)CC1 (stereo not shown) [Compound 222]	3980
COCC(O)C1CCN(C(=O)C(Cc2c[nH]c3ccccc23)Nc2ccc(Nc3ccncc3)cc2)CC1 (stereo not shown) [Compound 223]	794
O=C(C(Cc1c[nH]c2ccccc12)Nc1ccc(Nc2ccncc2)cc1)N1CCC(CO)CC1 (stereo not shown) [Compound 224]	3980
CC(O)C1CCN(C(=O)C(Cc2c[nH]c3ccccc23)Nc2ccc(Nc3ccncc3)cc2)CC1 (stereo not shown) [Compound 225]	158
CC(C)(C)OC(=O)N(CCc1cn(C(=O)OC(C)(C)C)c2ccccc12)c1ccc(Nc2ccncc2)cc1 [Compound 226]	3160
CC(C)(C)OC(=O)N(CCc1cn(C(=O)OC(C)(C)C)c2ccccc12)c1ccc(N(c2ccncc2)c2ccncc2)cc1 [Compound 227]	7940
c1ccc2c(CCNc3ccc(N(c4ccncc4)c4ccncc4)cc3)c[nH]c2c1 [Compound 228]	7940
